Experimental data published in patent US20230095926A1, “PARASITE CONTROL IN RUMINANTS” (Intervet Inc., priority 2019, published 2023).

Experiments:
[1] = system: cattle sucking lice (Haematopinus eurysternus, Linognathus vituli); assay: Sucking lice efficacy study in cattle, natural infestation, single subcutaneous injection; assay type: in vivo; details: 1 mg/kg s.c.
Method: (§1) This study determined the efficacy (via reductions in total lice counts) of fluralaner in an injectable suspension formulation against natural infestations of cattle sucking (Haematopinus eurysternus, Linognathus vituli) and biting/chewing lice (Bovicola bovis) when applied at a single dose to young, lice infested cattle. Treatment efficacy was determined by whole body lice counts post treatment and comparison of treated and untreated (placebo) group mean lice counts. The naturally acquired louse infestations consisted of 2 species of sucking lice (Haematopinus eurysternus and Linognathus vituli) and the biting louse Bovicola bovis. Each animal was examined in a cattle crush prior to being selected from the parent mob to ensure that more than 30 sucking lice (combined total of both sucking lice species) were present. Fluralaner at a dose level of 1.0 mg/kg bw and Control Product were administered to cattle by subcutaneous injection. The numbers of live adults and live nymphs for each species of lice on each animal were counted at 7-day intervals starting with pre-treatment counts on Day −1 and post-treatment on Days 7, 14, 21, 28, 35, 42, 49 and 56.

[2] = system: sheep body lice (Bovicola ovis), benzoyl phenyl urea (IGR) resistant; assay: Efficacy long wool lice study, single subcutaneous injection, Merino ewes with 7 months wool growth; details: for Geometric efficacy (%) Day 7 / Geometric efficacy (%) Day 14 / Geometric efficacy (%) Day 21 / Geometric efficacy (%) Day 42 / Geometric efficacy (%) Day 84 / Geometric efficacy (%) Day 140: long wool sheep, Henderson-Tilton
[3] = system: sheep body lice (Bovicola ovis), diazinon resistant; assay: Long wool lice efficacy study, single subcutaneous dose, Merino sheep with 3 months wool growth; assay type: in vivo
Method: In this study the efficacy of fluralaner when administered once subcutaneously at doses of 1 and 2 mg/kg body weight against sheep body lice (Bovicola ovis) infestation on Merino sheep with 3 months wool growth was evaluated.
Fluralaner was administered to sheep in Groups 2 and 3 on Day 0 at 1 and 2 mg fluralaner/kg bodyweight respectively. Group 1 was left untreated as a negative control.
Pre-treatment lice counts were conducted on Day −1 and used to allocate sheep to treatment groups. Post-treatment lice counts were conducted 7, 14, 21, 42, 84 and 140 days±1-day post-treatment. Lice counts were performed as discussed in Example 1.

[4] = system: biting/chewing lice (Bovicola bovis); assay: Biting lice efficacy study in cattle, natural infestation, single subcutaneous injection; assay type: in vivo; details: 1 mg/kg s.c.
Method: as §1

[5] = system: sheep body lice (Bovicola ovis); assay: Persistency determination, lice challenge of treated lice free Merino sheep with 5 months wool growth; assay type: in vivo; details: 3.0 mg/kg s.c., Day 21-28 challenge, counts 7, 14, 21, 42 and 84 days post-challenge
Method: In this study the persistent efficacy of fluralaner when administered once subcutaneously at doses of 1.0, 2.0 and 3.0 mg/kg body weight against sheep body lice (Bovicola ovis) infestation on Merino sheep with 5 months wool growth was evaluated.
Fluralaner was administered to sheep in three groups each at 1.0, 2.0 and 3.0 mg fluralaner/kg bodyweight. The dose was administered subcutaneously. Three groups were left untreated as negative control groups.
From Day 21-28, 49-56 and Day 77-84 post-treatment one group of untreated negative control sheep and one group of sheep treated at 1.0, 2.0 and 3.0 mg/kg were challenged with lice by close confinement with lice infested sheep and manual transfer of lice. Following the challenges lice counts were conducted 7, 14, 21, 42 and 84 days±1-day post-challenge (not all counts conducted for all challenges).

## Cc1cc(C2=NOC(c3cc(Cl)cc(Cl)c3)(C(F)(F)F)C2)ccc1C(=O)NCC(=O)NCC(F)(F)F (stereo not shown) [Fluralaner, 4-[5-(3,5-dichlorophenyl)-5-trifluoromethyl-4,5-dihydroisoxazol-3-yl]-2-methyl-N-[(2,2,2-trifluoro-ethylcarbamoyl)-methyl]-benzamide]
[1]; Day 7
  efficacy (based on Arithmetic Means) against the sucking lice: 97.69%
[1]; Day 14
  efficacy (based on Arithmetic Means) against the sucking lice: 99.89%
[1]; from Day 21 until Day 56
  lice found on treated cattle: no lice of any species found
[2]; 1.0 mg/kg s.c. once
  Geometric efficacy (%) Day 7: 99.4%
  Geometric efficacy (%) Day 14: 99.9%
  Geometric efficacy (%) Day 21: 100.0%
  Geometric efficacy (%) Day 42: 100.0%
  Geometric efficacy (%) Day 84: 100.0%
  Geometric efficacy (%) Day 140: 100.0%
[2]; 2.0 mg/kg s.c. once
  Geometric efficacy (%) Day 7: 99.6%
  Geometric efficacy (%) Day 14: 100.0%
  Geometric efficacy (%) Day 21: 100.0%
  Geometric efficacy (%) Day 42: 100.0%
  Geometric efficacy (%) Day 84: 100.0%
  Geometric efficacy (%) Day 140: 100.0%
[2]; 3.0 mg/kg s.c. once
  Geometric efficacy (%) Day 7: 99.6%
  Geometric efficacy (%) Day 14: 100.0%
  Geometric efficacy (%) Day 21: 100.0%
  Geometric efficacy (%) Day 42: 100.0%
  Geometric efficacy (%) Day 84: 100.0%
  Geometric efficacy (%) Day 140: 100.0%
[2]; sheep, 1, 2 and 3 mg/kg s.c., throughout the duration of the trial
  treatment related adverse events or health problems: No treatment related adverse events or health problems occurred
[3]; 1.0 mg/kg dose rate
  time until activity reached the required level: ≤ 42 days post-treatment
[3]; 1 mg/kg s.c.
  Sheep Body Lice Efficacy Based on Geometric Means Day 7: 81.8%
  Sheep Body Lice Efficacy Based on Geometric Means Day 14: 97.2%
  Sheep Body Lice Efficacy Based on Geometric Means Day 21: 99.6%
  Sheep Body Lice Efficacy Based on Geometric Means Day 42: 100.0%
  Sheep Body Lice Efficacy Based on Geometric Means Day 84: 100.0%
  Sheep Body Lice Efficacy Based on Geometric Means Day 140: 100.0%
[3]; 2.0 mg/kg dose rate
  time until efficacy reached the required level: ≤ 14 days post-treatment
[3]; 2 mg/kg s.c.
  Sheep Body Lice Efficacy Based on Geometric Means Day 7: 95.2%
  Sheep Body Lice Efficacy Based on Geometric Means Day 14: 100.0%
  Sheep Body Lice Efficacy Based on Geometric Means Day 21: 100.0%
  Sheep Body Lice Efficacy Based on Geometric Means Day 42: 100.0%
  Sheep Body Lice Efficacy Based on Geometric Means Day 84: 100.0%
  Sheep Body Lice Efficacy Based on Geometric Means Day 140: 100.0%
[4]; Day 7
  efficacy against the biting lice B. bovis: 91.74%
[4]; by Day 14
  efficacy against the biting lice B. bovis: 100%
[4]; from Day 21 until Day 56
  lice found on treated cattle: no lice of any species found
[5]
  lice or viable lice eggs found after challenge: No lice or viable lice eggs were found
